Measured values: US8354106B2, “Antibodies against HMGB1 and fragments thereof” (The Feinstein Institute for Medical Research, priority 2005, dated 2013)
Entries after “also recorded” stand apart in the source; their conditions may differ. Where no end group is shown, it is not given here. The star is where a group is joined. Biotin = O=C1N[C@H]2[C@H](CS[C@H]2CCCCC(=O)*)N1

What was measured:
[1] = tested on: murine bone marrow-derived dendritic cells (BM-DCs); assay: Cytokine/chemokine secretion by murine bone marrow-derived dendritic cells (ELISA); format: cell-based, mouse; set-up: key to TNFα secretion / IL-18 secretion / IL-8 secretion / IL-10 secretion / IL-2 secretion / IL-1β secretion / IL-5 secretion / IL-6 secretion / IL-12 secretion: “+” indicates an increase; “−” indicates no change relative to untreated cells (medium); conditions: for IL-1β secretion / IL-2 secretion / IL-5 secretion / IL-6 secretion / IL-8 secretion / IL-10 secretion / IL-12 secretion / IL-18 secretion / TNFα secretion: MURINE DC, ELISA 48 h after exposure, relative to untreated cells; for IL-1β secretion / IL-2 secretion / IL-5 secretion / IL-6 secretion / IL-8 secretion / IL-10 secretion / IL-12 secretion / IL-18 secretion / TNFα secretion / secretion of IL-1β / secretion of IL-2 / secretion of IL-8 / secretion of IL-5 / secretion of IL-18 / secretion of TNF-α / secretion of IL-12 (p70): peptides 200 μg/ml, HMGB1-Bx 50 μg/ml; for cytokine secretion by murine BM-DCs / secretion of IL-1β / secretion of IL-2 / secretion of IL-8 / secretion of IL-5 / secretion of IL-18 / secretion of TNF-α / secretion of IL-12 (p70): murine BM-DCs; for secretion of IL-1β: FIG. 2A; for secretion of IL-1β / secretion of IL-2 / secretion of IL-8 / secretion of IL-5 / secretion of IL-18 / secretion of TNF-α / secretion of IL-12 (p70): 48 h; for secretion of IL-2: FIG. 2C; for secretion of IL-8: FIG. 2D; for secretion of IL-5: FIG. 2E; for secretion of IL-18: FIG. 2F; for secretion of TNF-α: FIG. 2G; for secretion of IL-12 (p70): FIGS. 2B, 2H
Description: Bone marrow-derived DCs (BM-DCs) were generated using modifications of the original method described by Inaba, et al. (J. Exp. Med. 1 76:1693-1702 (1992)). In brief, bone marrow suspensions were incubated with red cell lysis buffer (PUREGENE™ RBC Lysis Solution, Gentra Systems, Minneapolis, Minn.) to remove red blood cells. After washing in media, lymphocytes and Ia-positive cells were killed with a cocktail of monoclonal antibodies (mAbs) and rabbit complement for 60 min at 37° C. The mAbs that were used were GK1.5 anti-CD4, TIB211 anti-CD8, TIB 120 anti-Ia, and TIB 146 anti B220 (these mAbs were kindly provided by Dr. Ralph Steinman). The cells were subsequently cultured in media containing 5% FCS and 10 ng/ml recombinant mouse GM-CSF (R&D Systems, Minneapolis, Minn.) for 7 days. For some experiments, the cells were further purified at day 7 using CD11c^+-microbeads (Miltenyi Biotech., Auburn, Calif.), according to the manufacturer's instructions.
Recombinant HMGB1-B box domain (HMGB1-Bx) was expressed in Escherichia coli and purified as described by Li, et al. (Mol. Med. 9:37-45; J. Immunol. Methods 289:211-223 (2004)). Purified HMGB1-Bx contained trace amounts of LPS (19 pg LPS/μg HMGB1-Bx) as measured by the chromogenic Limulus amebocyte lysate assay (BioWhittacker Inc, Walkersville, Md.). All experiments using HMGB1-Bx, as well as the HMGB1 peptides, were performed in the presence of polymyxin B (200 U/ml) to neutralize the amount of contaminating LPS in the HMGB1-Bx and peptide preparations. We have previously shown that the DC stimulatory capacity of HMGB1-Bx requires an intact tertiary structure and is not due to contaminating amounts of LPS, as trypsinization abolished HMGB1-Bx activity (Messmer, et al., J. Immunol. 173: 307-313 (2004); the entire teachings of which are incorporated herein by reference).
Secreted cytokine/chemokine levels were measured by ELISA (Pierce Boston Technology Center, SearchLight™ Proteome Arrays Multiplex Sample Testing Services, Woburn, Mass.) 48 h after addition of the various peptides. Polymyxin B (200 U/ml) was added to all cultures, except those containing LPS, before the stimuli were added. Immature monocyte-derived human dendritic cells (DCs) and immature bone-marrow derived murine dendritic cells (BM-DCs) were cultured either in the presence of HMGB1 peptides (200 μg/ml), whose sequences map to different regions of the HMGB1 protein (see Table 1), the entire HMGB1 B-box domain (HMGB1-Bx) (50 μg/ml), or LPS (100 ng/ml). Untreated cells (medium) were tested as a control. Each peptide was named according to the corresponding position of its first amino acid within the full-length HMGB1 sequence. All peptides were N-terminally biotinylated except “Hp-106 (non bio)”.

[2] = tested on: allogeneic T cells co-cultured with BM-DCs; assay: Functional maturation of BM-DCs: allogeneic T cell proliferation in mixed lymphocyte reaction (3H-thymidine); format: cell-based, mouse; conditions: BM-DCs from C57/BL6 mice exposed 48 h; peptide 200 μg/ml, HMGB1-Bx 50 μg/ml; DC:T cell ratio 1:120, 5 days; FIG. 4A
Description: Immature BM-DCs that were generated from C57/BL6 mice (FIG. 4A) or Balb/c mice (FIG. 4B) were incubated for 48 h with either HMGB1-Bx (50 μg/ml), a particular HMGB1 peptide (200 μg/ml), LPS (100 ng/ml) or were left untreated (medium). T cells were isolated by negative selection using the mouse SpinSep antibody cocktail from StemCell Technologies (Vancouver, Calif.), according to the manufacturer's instructions. The cell purity of the isolated T cells was routinely ˜99% pure. In order to assess levels of T cell activation and proliferation, cells were plated at 10^5 cells per well in a round-bottomed 96-well tray at a DC:T cell ratio of 1:120 for 5 days in the medium described above. The microcultures were pulsed with (^3H)-thymidine ([…]) for the final 8 h of culture. Cell cultures were harvested onto glass fiber filters with an automated multiple sample harvester and the amount of isotope incorporation was determined by liquid scintillation β-emission. Responses are reported as mean cpm of thymidine incorporation by triplicate cultures (±SEM).

Sequence | IL-1β secretion [1] | IL-2 secretion [1] | IL-5 secretion [1] | IL-6 secretion [1] | IL-8 secretion [1] | IL-10 secretion [1] | IL-12 secretion [1] | IL-18 secretion [1] | TNFα secretion [1] | cytokine secretion by murine BM-DCs [1] | secretion of IL-1β [1] | secretion of IL-2 [1] | secretion of IL-8 [1] | secretion of IL-5 [1] | secretion of IL-18 [1] | secretion of TNF-α [1] | secretion of IL-12 (p70) [1] | proliferation of resting allogeneic T cells (3H thymidine incorporation) [2]
CSEYRPKIKGEHPGLSIG [Hp-106] (Biotin-CSEYRPKIKGEHPGLSIG; listed as Homo sapiens) | + | + | + | − | + | − | + | + | + | induced cytokine secretion by murine BM-DCs; also recorded: high levels of cytokine secretion | enhanced secretion | enhanced secretion | enhanced secretion | enhanced secretion | enhanced secretion | enhanced secretion | enhanced secretion | activated proliferation
YAFFVQTCREEHIKKHPD [Hp-16] | + | + | + | − | − | − | + | + | − | enhanced cytokine secretion; also recorded: stimulated cytokine secretion | enhanced secretion | enhanced secretion | only Hp-106 enhanced secretion | enhanced secretion | enhanced secretion | only Hp-106 enhanced secretion | enhanced secretion | activated proliferation
